Holding throughout (assay type): cell-based
Assay [1] relates to Pseudomonas aeruginosa Shibata. Briefly: antibacterial spectra (Table 1).
Assay [2] relates to Staphylococcus aureus 209P. Briefly: antibacterial spectra (Table 1).
The subject of assay [3] is Serratia marcescens. Kind of assay: antibacterial spectra (Table 1).
Assay [4] deals with Proteus inconstans. Kind of assay: antibacterial spectra (Table 1).
Assay [5] relates to Pseudomonas aeruginosa A3. Briefly: antibacterial spectra (Table 1).
Assay [6] relates to Bacillus anthracis.
In assay [7] the test system is Pseudomonas aeruginosa No. 315. Kind of assay: antibacterial spectra (Table 1). To be noted: Pseudomonas aeruginosa No. 315 (resistant to gentamicin, tobramycin and amikacin).
Assay [8] relates to Bacillus cereus. Briefly: antibacterial spectra (Table 1).
The subject of assay [9] is Pseudomonas aeruginosa TI-13. Briefly: antibacterial spectra (Table 1).
Assay [10] deals with Bacillus subtilis ATCC 6633. Briefly: antibacterial spectra (Table 1).
In assay [11] the test system is Escherichia coli NIHJ. Kind of assay: antibacterial spectra (Table 1).
In assay [12] the test system is Pseudomonas aeruginosa No. 157. Kind of assay: antibacterial spectra (Table 1).
Assay [13] has as its system Klebsiella pneumoniae PCI 602. Briefly: antibacterial spectra (Table 1).
Assay [14] deals with Proteus vulgaris OX-19. Briefly: antibacterial spectra (Table 1).
Assay [15] relates to Pseudomonas aeruginosa No. 12. Kind of assay: antibacterial spectra (Table 1).
The subject of assay [16] is Escherichia coli ML1410. Briefly: antibacterial spectra (Table 1).
Assay [17] has as its system Streptococcus faecalis. Briefly: antibacterial spectra (Table 1).
Assay [18] relates to Pseudomonas aeruginosa K-11. Briefly: antibacterial spectra (Table 1). As to conditions: Pseudomonas aeruginosa K-11 (resistant to kanamycin).

The text below walks through data of patent US4255421A, “Fortimicin aminoglycosides, process for production thereof, and use thereof” (Kowa Company, Ltd., priority 1978, dated 1981).

For 4-N-glycyl KA-6606VI, the antibacterial spectra in assay [1] amounted to 6.25; in assay [2] it was 0.39; in assay [3], 0.78; in assay [4], 1.56; in assay [5] it was 6.25; in assay [6] it was 0.20. The antibacterial spectra was determined as 12.5 in assay [7]; 0.78 in [8]; 3.13 in assay [9]; 0.20 in assay [10]; 1.56 in [11]; 3.13 in assay [12]. For the same substance, the antibacterial spectra in [13] was 0.78; in [14] it was 1.56; in assay [15], 0.78; in [16] it was 3.13; in [17], 25; in assay [18], 6.25.
